Experiments:
Conditions in all cases: 72 h
HepG2 [1] = assay: drug sensitivity score (DSS) for viability; higher = more toxic; extreme values may be limits of the assay
Caco-2 [2] = assay: as above
U2OS [3] = assay: as above
Vero E6 [4] = assay: as above
Calu-3 [5] = assay: as above
HepG2 [6] = assay: cell viability relative to DMSO; higher = less toxic
Caco-2 [7] = assay: as above
U2OS [8] = assay: as above
Vero E6 [9] = assay: as above
Calu-3 [10] = assay: as above
HepG2 [11] = assay: relative viability EC50 (midpoint between 100% and the lowest measured viability); higher = less toxic
Caco-2 [12] = assay: as above
U2OS [13] = assay: as above
Vero E6 [14] = assay: as above
Calu-3 [15] = assay: as above

Structure (SMILES) | drug sensitivity score (HepG2 [1]) | drug sensitivity score (Caco-2 [2]) | drug sensitivity score (U2OS [3]) | drug sensitivity score (Vero E6 [4]) | drug sensitivity score (Calu-3 [5]) | cell viability (HepG2 [6]; 1 nM) [%] | cell viability (HepG2 [6]; 10 nM) [%] | cell viability (HepG2 [6]; 100 nM) [%] | cell viability (HepG2 [6]; 1000 nM) [%] | cell viability (HepG2 [6]; 10000 nM) [%] | cell viability (Caco-2 [7]; 1 nM) [%] | cell viability (Caco-2 [7]; 10 nM) [%] | cell viability (Caco-2 [7]; 100 nM) [%] | cell viability (Caco-2 [7]; 1000 nM) [%] | cell viability (Caco-2 [7]; 10000 nM) [%] | cell viability (U2OS [8]; 1 nM) [%] | cell viability (U2OS [8]; 10 nM) [%] | cell viability (U2OS [8]; 100 nM) [%] | cell viability (U2OS [8]; 1000 nM) [%] | cell viability (U2OS [8]; 10000 nM) [%] | cell viability (Vero E6 [9]; 1 nM) [%] | cell viability (Vero E6 [9]; 10 nM) [%] | cell viability (Vero E6 [9]; 100 nM) [%] | cell viability (Vero E6 [9]; 1000 nM) [%] | cell viability (Vero E6 [9]; 10000 nM) [%] | cell viability (Calu-3 [10]; 1 nM) [%] | cell viability (Calu-3 [10]; 10 nM) [%] | cell viability (Calu-3 [10]; 100 nM) [%] | cell viability (Calu-3 [10]; 1000 nM) [%] | cell viability (Calu-3 [10]; 10000 nM) [%] | relative viability EC50 (HepG2 [11]) [µM] | relative viability EC50 (Caco-2 [12]) [µM] | relative viability EC50 (U2OS [13]) [µM] | relative viability EC50 (Vero E6 [14]) [µM] | relative viability EC50 (Calu-3 [15]) [µM]
CC[C@@H](CO)NC(=O)[C@@H]1C=C2c3cccc4c3c(cn4C)C[C@H]2N(C)C1 [methysergide] | 0 | 0 | 0 | 0 | 0 | 94.8 | 96.9 | 102 | 102 | 111 | 95.9 | 89.6 | 100 | 94.3 | 110 | 101 | 96.1 | 100 | 92.3 | 98.7 | 96 | 100 | 91.9 | 99.7 | 111 | 88.7 | 99.1 | 102 | 97 | 102 | > 10 | > 10 | > 10 | > 10 | > 10
COCCc1ccc(OCC(O)CNC(C)C)cc1 (stereo not given) [metoprolol] | 0 | 0 | 0 | 0 | 0 | 112 | 79.4 | 122 | 79.7 | 93.6 | 102 | 136 | 91.8 | 110 | 94.4 | 103 | 109 | 99 | 108 | 104 | 97.7 | 97.1 | 96.1 | 93.6 | 96.2 | 93.1 | 106 | 93.2 | 101 | 98.7 | > 10 | > 10 | > 10 | > 10 | > 10
O=c1c(O)c(-c2cc(O)c(O)c(O)c2)oc2cc(O)cc(O)c12 [myricetin] | 0 | 0 | 0 | 0 | 0 | 96.9 | 91.9 | 106 | 94.4 | 96.3 | 97.2 | 99.2 | 98.8 | 101 | 96 | 93.6 | 105 | 97.4 | 99.6 | 103 | 94.1 | 97.7 | 95.4 | 95.8 | 97.5 | 105 | 98.5 | 96 | 102 | 105 | > 10 | > 10 | > 10 | > 10 | > 10
CCOc1ccc2ccccc2c1C(=O)N[C@@H]1C(=O)N2[C@@H]1SC(C)(C)[C@@H]2C(=O)O [nafcillin] | 0 | 0 | 0 | 0 | 0 | 99.5 | 91.5 | 96.8 | 92.4 | 99.5 | 99 | 96.4 | 99.9 | 101 | 105 | 98.2 | 99.6 | 94.5 | 100 | 106 | 103 | 90.3 | 94.2 | 104 | 95.7 | 91.1 | 107 | 101 | 99.5 | 102 | > 10 | > 10 | > 10 | > 10 | > 10
Oc1ccc2c3c1O[C@H]1c4oc5ccccc5c4C[C@@]4(O)[C@@H](C2)N(CC2CC2)CC[C@]314 [naltriben] | 0 | 0.3 | 0 | 0 | 0 | 102 | 120 | 93.5 | 99.7 | 99 | 91.7 | 91.9 | 102 | 98.6 | 86.5 | 101 | 101 | 100 | 101 | 99.8 | 90.9 | 101 | 93.3 | 96.4 | 108 | 105 | 85.1 | 105 | 87.7 | 99.5 | > 10 | > 10 | > 10 | > 10 | > 10
Oc1ccc2c3c1O[C@H]1c4[nH]c5ccccc5c4C[C@@]4(O)[C@@H](C2)N(CC2CC2)CC[C@]314 [naltrindole] | 0 | 0 | 0 | 0 | 0.3 | 103 | 97.7 | 101 | 106 | 91.7 | 102 | 94.6 | 98.1 | 96.5 | 106 | 98.7 | 100 | 102 | 111 | 97.9 | 95.9 | 102 | 105 | 95.4 | 92.1 | 98.5 | 98.5 | 103 | 101 | 83.9 | > 10 | > 10 | > 10 | > 10 | > 10

From the supplement of paper PMC13380429
